According to ChEMBL document CHEMBL5465560, “Selectivity Literature for EUbOPEN Chemogenomic Library” (2024):

Tests used:
[1] = molecular target: T1, Dual specificity mitogen-activated protein kinase kinase 4 (Homo sapiens) (UniProt P45985); assay: Selectivity interaction (Kinase panel (DSF assay)) EUB0001559a MAP2K4
T1 sequence (whole entry): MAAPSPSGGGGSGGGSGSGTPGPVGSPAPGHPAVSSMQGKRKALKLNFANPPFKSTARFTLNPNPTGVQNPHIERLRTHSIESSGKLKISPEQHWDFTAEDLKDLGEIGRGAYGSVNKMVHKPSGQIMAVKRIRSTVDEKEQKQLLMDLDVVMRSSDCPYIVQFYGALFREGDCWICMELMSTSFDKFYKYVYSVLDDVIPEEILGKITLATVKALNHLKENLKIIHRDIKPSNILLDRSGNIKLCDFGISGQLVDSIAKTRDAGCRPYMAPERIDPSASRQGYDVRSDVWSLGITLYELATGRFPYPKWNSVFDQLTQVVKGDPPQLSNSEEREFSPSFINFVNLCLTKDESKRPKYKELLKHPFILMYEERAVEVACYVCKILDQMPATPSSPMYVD

[2] = molecular target: T2, Serine/threonine-protein kinase LATS1 (Homo sapiens) (UniProt O95835); assay: Selectivity interaction (ActivX KiNativ screen (ex vivo kinase selectivity in human PBMCs)) EUB0001619a LATS1; type: cell-based; details: PBMC, at 1 µM
T2 sequence (whole entry): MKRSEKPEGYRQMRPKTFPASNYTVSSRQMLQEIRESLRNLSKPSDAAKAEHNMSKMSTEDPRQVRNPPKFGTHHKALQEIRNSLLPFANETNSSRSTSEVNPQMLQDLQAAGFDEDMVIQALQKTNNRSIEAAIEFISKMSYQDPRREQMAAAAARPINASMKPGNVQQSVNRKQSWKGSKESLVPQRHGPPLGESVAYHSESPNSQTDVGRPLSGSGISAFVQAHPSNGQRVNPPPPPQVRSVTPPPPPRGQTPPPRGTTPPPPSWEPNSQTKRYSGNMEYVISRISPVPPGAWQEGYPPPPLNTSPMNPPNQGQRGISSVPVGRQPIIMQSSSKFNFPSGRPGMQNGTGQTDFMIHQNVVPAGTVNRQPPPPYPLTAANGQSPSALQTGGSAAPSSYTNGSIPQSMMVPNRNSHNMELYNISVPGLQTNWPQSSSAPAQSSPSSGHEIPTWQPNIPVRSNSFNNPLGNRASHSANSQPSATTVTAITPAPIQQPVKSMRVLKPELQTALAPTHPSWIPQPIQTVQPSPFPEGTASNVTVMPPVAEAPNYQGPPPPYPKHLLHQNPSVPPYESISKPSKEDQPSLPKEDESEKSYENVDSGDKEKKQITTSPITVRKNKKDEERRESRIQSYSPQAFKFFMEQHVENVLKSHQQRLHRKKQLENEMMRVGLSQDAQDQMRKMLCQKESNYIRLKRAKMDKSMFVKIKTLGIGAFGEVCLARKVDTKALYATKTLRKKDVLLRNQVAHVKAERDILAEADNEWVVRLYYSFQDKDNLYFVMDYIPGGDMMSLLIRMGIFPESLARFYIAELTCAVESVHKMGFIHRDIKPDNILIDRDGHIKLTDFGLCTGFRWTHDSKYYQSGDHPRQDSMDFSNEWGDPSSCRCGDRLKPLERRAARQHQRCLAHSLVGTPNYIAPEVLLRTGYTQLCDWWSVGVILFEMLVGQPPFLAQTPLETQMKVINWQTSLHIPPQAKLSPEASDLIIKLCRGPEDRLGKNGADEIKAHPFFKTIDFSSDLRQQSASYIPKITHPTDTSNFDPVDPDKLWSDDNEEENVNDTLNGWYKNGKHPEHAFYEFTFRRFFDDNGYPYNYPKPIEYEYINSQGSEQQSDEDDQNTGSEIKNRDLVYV

[3] = molecular target: 5'-AMP-activated protein kinase catalytic subunit alpha-1 (Homo sapiens, UniProt Q13131); assay: Selectivity interaction (ActivX KiNativ screen (kinase selectivity in THP-1 cell lysates)) EUB0000639a PRKAA1; type: subcellular; details: lysate, at 1 µM
Chain of 5'-AMP-activated protein kinase catalytic subunit alpha-1 (Q13131 whole entry, looked up): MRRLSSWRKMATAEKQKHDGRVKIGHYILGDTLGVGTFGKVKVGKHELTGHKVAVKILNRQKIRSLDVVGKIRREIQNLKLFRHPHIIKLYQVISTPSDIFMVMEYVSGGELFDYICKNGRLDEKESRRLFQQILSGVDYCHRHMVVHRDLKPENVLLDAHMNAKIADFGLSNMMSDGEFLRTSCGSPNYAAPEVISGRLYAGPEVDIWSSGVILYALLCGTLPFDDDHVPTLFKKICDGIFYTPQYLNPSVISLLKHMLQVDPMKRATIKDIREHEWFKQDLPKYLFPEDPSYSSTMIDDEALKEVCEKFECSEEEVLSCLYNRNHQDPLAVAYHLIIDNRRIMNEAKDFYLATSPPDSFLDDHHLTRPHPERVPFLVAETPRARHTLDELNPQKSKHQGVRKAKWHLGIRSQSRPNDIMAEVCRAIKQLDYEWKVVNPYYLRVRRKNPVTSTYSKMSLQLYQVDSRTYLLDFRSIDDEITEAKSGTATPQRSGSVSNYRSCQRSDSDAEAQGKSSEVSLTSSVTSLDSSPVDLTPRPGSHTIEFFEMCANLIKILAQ

[4] = molecular target: Mast/stem cell growth factor receptor Kit (Homo sapiens, UniProt P10721); assay: (§1) Selectivity interaction (KinomeScan (DiscoverX)) EUB0000655a KIT; details: at 10 µM
Chain of Mast/stem cell growth factor receptor Kit (P10721 whole entry): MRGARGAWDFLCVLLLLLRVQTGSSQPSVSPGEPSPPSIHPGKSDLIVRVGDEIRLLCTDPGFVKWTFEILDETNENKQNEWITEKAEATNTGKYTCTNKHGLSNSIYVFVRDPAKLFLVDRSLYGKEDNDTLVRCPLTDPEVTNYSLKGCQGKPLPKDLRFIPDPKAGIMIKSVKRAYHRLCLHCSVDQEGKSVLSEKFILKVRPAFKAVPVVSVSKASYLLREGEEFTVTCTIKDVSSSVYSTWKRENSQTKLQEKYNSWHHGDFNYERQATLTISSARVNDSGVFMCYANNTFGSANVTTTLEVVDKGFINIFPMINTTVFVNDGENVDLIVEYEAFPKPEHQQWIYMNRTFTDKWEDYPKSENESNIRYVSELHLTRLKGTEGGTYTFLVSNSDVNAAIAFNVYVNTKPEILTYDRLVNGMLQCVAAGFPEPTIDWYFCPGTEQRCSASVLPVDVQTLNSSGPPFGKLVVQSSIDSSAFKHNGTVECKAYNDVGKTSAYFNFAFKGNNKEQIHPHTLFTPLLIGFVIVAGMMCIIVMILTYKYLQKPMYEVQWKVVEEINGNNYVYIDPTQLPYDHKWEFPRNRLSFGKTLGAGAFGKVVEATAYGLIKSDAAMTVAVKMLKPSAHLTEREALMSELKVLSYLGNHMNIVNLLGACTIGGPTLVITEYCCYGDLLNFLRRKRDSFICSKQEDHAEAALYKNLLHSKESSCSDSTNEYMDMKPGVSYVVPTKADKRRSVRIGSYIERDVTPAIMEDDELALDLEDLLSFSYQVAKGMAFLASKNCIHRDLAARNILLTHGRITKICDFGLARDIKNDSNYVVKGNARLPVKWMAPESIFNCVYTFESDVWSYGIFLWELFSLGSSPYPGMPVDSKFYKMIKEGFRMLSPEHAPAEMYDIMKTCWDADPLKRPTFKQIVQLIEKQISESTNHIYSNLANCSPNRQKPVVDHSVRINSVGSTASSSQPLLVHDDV

[5] = test system: Mast/stem cell growth factor receptor Kit (Homo sapiens), P10721 [L576P]; assay: as §1; details: at 10 µM
Chain of Mast/stem cell growth factor receptor Kit (Homo sapiens), P10721 [L576P] (P10721 whole entry L576P): as the sequence (P10721 whole entry) above, with L576P counted along it

[6] = test system: Mast/stem cell growth factor receptor Kit (Homo sapiens), P10721 [V559D,V654A]; assay: as §1; details: at 10 µM
Chain of Mast/stem cell growth factor receptor Kit (Homo sapiens), P10721 [V559D,V654A] (P10721 whole entry V559D/V654A): as the sequence (P10721 whole entry) above, with V559D, V654A counted along it

[7] = test system: Mast/stem cell growth factor receptor Kit (Homo sapiens), P10721 [V559D,T670I]; assay: as §1; details: at 10 µM
Chain of Mast/stem cell growth factor receptor Kit (Homo sapiens), P10721 [V559D,T670I] (P10721 whole entry V559D/T670I): as the sequence (P10721 whole entry) above, with V559D, T670I counted along it

[8] = test system: Mast/stem cell growth factor receptor Kit (Homo sapiens), P10721 [A829P]; assay: as §1; details: at 10 µM
Chain of Mast/stem cell growth factor receptor Kit (Homo sapiens), P10721 [A829P] (P10721 whole entry A829P): as the sequence (P10721 whole entry) above, with A829P counted along it

[9] = test system: Mast/stem cell growth factor receptor Kit (Homo sapiens), P10721 [V559D]; assay: as §1; details: at 10 µM
Chain of Mast/stem cell growth factor receptor Kit (Homo sapiens), P10721 [V559D] (P10721 whole entry V559D): as the sequence (P10721 whole entry) above, with V559D counted along it

[10] = test system: Mast/stem cell growth factor receptor Kit (Homo sapiens), P10721 [D816H]; assay: as §1; details: at 10 µM
Chain of Mast/stem cell growth factor receptor Kit (Homo sapiens), P10721 [D816H] (P10721 whole entry D816H): as the sequence (P10721 whole entry) above, with D816H counted along it

[11] = test system: Mast/stem cell growth factor receptor Kit (Homo sapiens), P10721 [D816V]; assay: as §1; details: at 10 µM
Chain of Mast/stem cell growth factor receptor Kit (Homo sapiens), P10721 [D816V] (P10721 whole entry D816V): as the sequence (P10721 whole entry) above, with D816V counted along it

[12] = molecular target: Dual specificity mitogen-activated protein kinase kinase 1 (Homo sapiens, UniProt Q02750); assay: Selectivity interaction (KinomeScan (DiscoverX)) EUB0000092b MAP2K1; details: at 10 µM
Chain of Dual specificity mitogen-activated protein kinase kinase 1 (Q02750 whole entry): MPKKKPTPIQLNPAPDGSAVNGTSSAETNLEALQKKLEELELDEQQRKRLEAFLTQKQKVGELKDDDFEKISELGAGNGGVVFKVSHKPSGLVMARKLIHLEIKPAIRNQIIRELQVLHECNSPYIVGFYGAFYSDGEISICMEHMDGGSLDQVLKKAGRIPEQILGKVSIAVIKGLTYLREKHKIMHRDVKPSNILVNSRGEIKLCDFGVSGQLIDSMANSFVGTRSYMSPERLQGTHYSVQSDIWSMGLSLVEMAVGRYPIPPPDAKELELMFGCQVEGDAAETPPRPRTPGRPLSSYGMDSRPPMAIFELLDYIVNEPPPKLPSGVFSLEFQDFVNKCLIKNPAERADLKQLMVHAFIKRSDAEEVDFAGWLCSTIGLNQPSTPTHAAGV

CN(C(=O)c1cnn2cccnc12)c1cc2c(cc1N1CCOCC1)C(=O)N(C[C@@H](F)C(C)(C)O)C2
dTM [1]: 0.2 K

N#Cc1cccc(-c2c[nH]c3ncnc(N4CCOCC4)c23)c1
% of inhibition [2]: 5%

CC[C@@H]1[C@H](F)C(=O)N[C@@H]1COc1nccc2cc(C(N)=O)c(OC)cc12 [ZIMLOVISERTIB]
% of inhibition [3]: -4.6%

CN(C)CCOc1ccc(-c2nc(-c3ccncc3)c(-c3ccc4c(c3)CC/C4=N\O)[nH]2)cc1
% of control [4]: 75% | % of control [5]: 58% | % of control [6]: 93% | % of control [7]: 93% | % of control [8]: 86% | % of control [9]: 65% | % of control [10]: 100% | % of control [11]: 79%

CCC(=O)N1CCN(c2ccc(-n3c(=O)ccc4cnc5ccc(-c6cnc7ccccc7c6)cc5c43)cc2C(F)(F)F)CC1
% of control [12]: 100%
